Reference: US9999616B2 (ZENITH EPIGENETICS LTD., priority 2013, dated 2018)

Tests used:
[1] = test system: hIL-6 mRNA; test: Inhibition of hIL-6 mRNA transcription in LPS-stimulated U937 macrophages; assay type: cell-based, Human; conditions: Homo sapiens, U-937, PMA-differentiated U937 cells, 1 h pretreatment, LPS 3 h, read-out: IL-6 activity
Summary of the method: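 PMA-differentiated U937 macrophages (60 ng/mL PMA, 3 days) pretreated 1 h with compound in 0.1% DMSO, then stimulated with 1 ug/mL E. coli LPS for 3 h at 37° C. IL-6 mRNA quantified by one-step TaqMan qRT-PCR, normalized to cyclophilin; fold expression relative to control, triplicate wells.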

[2] = test system: Human AML MV-4-11 cells; test: Inhibition of cell proliferation in MV4-11 cells (CellTiter Aqueous One); assay type: cell-based; conditions: MV4-11, 72 h
Summary of the method: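 MV4-11 cells, 5×10^4 per well in IMDM with 10% FBS, were exposed to increasing compound concentrations or 0.1% DMSO for 72 h at 37 °C in triplicate. Viability was read by MTS (CellTiter Aqueous One) absorbance at 490 nm after 3-4 h. IC50 was derived from background-corrected signal relative to DMSO.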

[3] = test system: c-myc in Human AML MV4-11 cells; test: Inhibition of cMYC expression (mRNA, real-time PCR) in MV4-11 cells; assay type: cell-based; conditions: 3 h treatment, cMYC mRNA by real-time PCR
Summary of the method: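 MV4-11 cells in IMDM with 10% FBS were treated with increasing compound concentrations (DMSO 0.1%) for 3 h at 37 °C, in triplicate. Isolated mRNA was quantified by one-step TaqMan RT-qPCR, cMYC Ct normalized to cyclophilin, and fold expression given relative to DMSO control.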

[4] = target: Brd4 bromodomain 1 (BRD4(1)) (Homo sapiens, UniProt O60885); test: Inhibition of tetra-acetylated histone H4 binding to Brd4 bromodomain 1, measured by FRET (HTRF); parameters: made in house; host or cells: E. coli BL21(DE3); conditions: 2 h at room temperature
Summary of the method: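 Inhibition was read as a drop in 665 nm relative to 620 nm HTRF signal after 2 h at room temperature, with IC50 from dose-response curves in duplicate wells. Reactions held 200 nM E. coli-expressed His-tagged bromodomain and 25-50 nM biotinylated tetra-acetylated histone H4 peptide. Buffer was 30 mM HEPES pH 7.4 with KF, CHAPS, BSA and 0.2% DMSO.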

SMILES	IC50 [1]	IC50 [2]	IC50 [3]	IC50 [4]
Cc1n[nH]c(C)c1-c1cc(-c2c(C)noc2C)cc2[nH]nc(C)c12 [Example Compound 180, 4-(4-(3,5-dimethyl-1H-pyrazol-4-yl)-3-methyl-1H-indazol-6-yl)-3,5-dimethylisoxazole]	≤ 0.3 µM	≤ 0.3 µM	≤ 0.3 µM	≤ 0.3 µM
Cc1nc2c(-c3ccccc3Cl)cc(-c3c(C)noc3C)cc2[nH]1 [Example Compound 144, 4-(4-(2-chloro-phenyl)-2-methyl-1H-benzo[d]imidazol-6-yl)-3,5-dimethyl isoxazole]	≤ 0.3 µM	≤ 0.3 µM	≤ 0.3 µM	≤ 0.3 µM
Cc1nc2c(-c3c(C)cnn3C)cc(-c3c(C)noc3C)cc2[nH]1 [Example Compound 169, 4-(4-(1,4-dimethyl-1H-pyrazol-5-yl)-2-methyl-1H-benzo[d]imidazol-6-yl)-3,5-dimethyl isoxazole]	0.3 to 3 µM	0.3 to 3 µM	0.3 to 3 µM	≤ 0.3 µM
Cc1noc(C)c1-c1cc(-c2cnccc2C(F)(F)F)c2[nH]ncc2c1 [Example Compound 129, 3,5-dimethyl-4-(7-(4-(trifluoromethyl)pyridin-3-yl)-1H-indazol-5-yl)isoxazole]	0.3 to 3 µM	0.3 to 3 µM	0.3 to 3 µM	0.3 to 3 µM
CNc1nc2c(-c3cnccc3C)cc(-c3c(C)noc3C)cc2[nH]1 [Example Compound 214, 6-(3,5-dimethyl-isoxazol-4-yl)-N-methyl-4-(4-methylpyridin-3-yl)-1H-benzo[d] imidazol-2-amine]	0.3 to 3 µM	≤ 0.3 µM	≤ 0.3 µM	≤ 0.3 µM
Cc1nc2c(-c3cnccc3C)cc(-c3c(C)noc3C)cc2[nH]1 [Example Compound 53, 3,5-dimethyl-4-(2-methyl-4-(4-methyl-pyridin-3-yl)-1H-benzo[d]imidazol-6-yl)isoxazole]	≤ 0.3 µM	0.3 to 3 µM	0.3 to 3 µM	≤ 0.3 µM
Cc1noc(C)c1-c1cc(-c2c(C)noc2C)c2c(c1)ncn2C [Example Compound 93, 4,4′-(1-methyl-1H-benzo[d]imidazole-5,7-diyl)bis(3,5-dimethylisoxazole)]	≤ 0.3 µM	0.3 to 3 µM	≤ 0.3 µM	≤ 0.3 µM
COc1ccc(F)c(-c2cc(-c3c(C)noc3C)cc3[nH]c(C)nc23)c1 [Example Compound 108, 4-(4-(2-fluoro-5-methoxy-phenyl)-2-methyl-1H-benzo[d]imidazol-6-yl)-3,5-dimethyl isoxazole]	0.3 to 3 µM	0.3 to 3 µM	0.3 to 3 µM	≤ 0.3 µM
Cc1noc(C)c1-c1cc(-c2ccccc2CN(C)C)c2nc[nH]c2c1 [Example Compound 28, 1-(2-(6-(3,5-dimethyl-isoxazol-4-yl)-1H-benzo[d]imidazol-4-yl)phenyl)-N,N-dimethyl methanamine]	0.3 to 3 µM	0.3 to 3 µM	0.3 to 3 µM	0.3 to 3 µM
Cc1noc(C)c1-c1cc(-c2c(C)noc2C)c2nn(C)cc2c1 [Example Compound 55, 4,4′-(2-methyl-2H-indazole-5,7-diyl)bis(3,5-dimethylisoxazole)]	0.3 to 3 µM	0.3 to 3 µM	0.3 to 3 µM	≤ 0.3 µM
COc1ccncc1Oc1cc(-c2c(C)noc2C)cc2[nH]c(C)nc12 [Example Compound 171, 4-(4-((4-methoxy-pyridin-3-yl)oxy)-2-methyl-1H-benzo[d]imidazol-6-yl)-3,5-dimethyl isoxazole]	0.3 to 3 µM	0.3 to 3 µM	0.3 to 3 µM	≤ 0.3 µM
Cc1noc(C)c1-c1cc(-c2c(C)noc2C)c2[nH]c(CC(F)(F)F)nc2c1 [Example Compound 76, 4,4′-(2-(2,2,2-trifluoro-ethyl)-1H-benzo[d]imidazole-5,7-diyl)bis(3,5-dimethylisoxazole)]	0.3 to 3 µM	0.3 to 3 µM	0.3 to 3 µM	≤ 0.3 µM
COc1nc(C)ccc1-c1cc(-c2c(C)noc2C)cc2[nH]c(C)nc12 [Example Compound 135, 4-(4-(2-methoxy-6-methyl-pyridin-3-yl)-2-methyl-1H-benzo[d]imidazol-6-yl)-3,5-dimethyl isoxazole]	0.3 to 3 µM	0.3 to 3 µM	≤ 0.3 µM	≤ 0.3 µM
Cc1noc(C)c1-c1cc(-c2c(C)noc2C)c2nc(NCCO)[nH]c2c1 [Example Compound 150, 2-((4,6-bis(3,5-dimethyl-isoxazol-4-yl)-1H-benzo[d]imidazol-2-yl)amino) ethanol]	0.3 to 3 µM	0.3 to 3 µM	0.3 to 3 µM	≤ 0.3 µM
Cc1ccc(C#N)cc1-c1cc(-c2c(C)noc2C)cc2[nH]c(NCc3ccccc3)nc12 [Example Compound 210, 3-(2-(benzylamino)-6-(3,5-dimethyl-isoxazol-4-yl)-1H-benzo[d]imidazol-4-yl)-4-methyl benzonitrile]	0.3 to 3 µM	≤ 0.3 µM	0.3 to 3 µM	≤ 0.3 µM
Cc1nc2c(-c3cc(C(N)=O)ccc3C)cc(-c3c(C)noc3C)cc2[nH]1 [Example Compound 74, 3-(6-(3,5-dimethyl-isoxazol-4-yl)-2-methyl-1H-benzo[d]imidazol-4-yl)-4-methyl benzamide]	0.3 to 3 µM	0.3 to 3 µM	0.3 to 3 µM	≤ 0.3 µM
Cc1nc2c(-c3cnccn3)cc(-c3c(C)noc3C)cc2[nH]1 [Example Compound 85, 3,5-dimethyl-4-(2-methyl-4-(pyrazin-2-yl)-1H-benzo[d]imidazol-6-yl)isoxazole]	0.3 to 3 µM	3 to 30 µM	3 to 30 µM	≤ 0.3 µM
Cc1nc2c(-c3cscc3C)cc(-c3c(C)noc3C)cc2[nH]1 [Example Compound 166, 3,5-dimethyl-4-(2-methyl-4-(4-methyl-thiophen-3-yl)-1H-benzo[d]imidazol-6-yl)isoxazole]	0.3 to 3 µM	0.3 to 3 µM	0.3 to 3 µM	≤ 0.3 µM
Cc1nc2c(Oc3cccnc3C)cc(-c3c(C)noc3C)cc2[nH]1 [Example Compound 155, 3,5-dimethyl-4-(2-methyl-4-((2-methylpyridin-3-yl)oxy)-1H-benzo[d]imidazol-6-yl)isoxazole]	0.3 to 3 µM	0.3 to 3 µM	0.3 to 3 µM	≤ 0.3 µM
Cc1nc2c(-c3cccc(C#N)c3C)cc(-c3c(C)noc3C)cc2[nH]1 [Example Compound 123, 3-(6-(3,5-dimethyl-isoxazol-4-yl)-2-methyl-1H-benzo[d]imidazol-4-yl)-2-methyl-benzonitrile]	≤ 0.3 µM	0.3 to 3 µM	≤ 0.3 µM	≤ 0.3 µM
Cc1nc2c(-c3ccccc3OC(F)(F)F)cc(-c3c(C)noc3C)cc2[nH]1 [Example Compound 77, 3,5-dimethyl-4-(2-methyl-4-(2-(trifluoro-methoxy)phenyl)-1H-benzo[d]imidazol-6-yl)isoxazole]	0.3 to 3 µM	0.3 to 3 µM	≤ 0.3 µM	≤ 0.3 µM
Cc1conc1Nc1cc(-c2c(C)noc2C)cc2[nH]cnc12 [Example Compound 44, N-(6-(3,5-dimethyl-isoxazol-4-yl)-1H-benzo[d]imidazol-4-yl)-4-methyl-isoxazol-3-amine]	0.3 to 3 µM	0.3 to 3 µM	0.3 to 3 µM	0.3 to 3 µM
Cc1nc2c(-c3cccnc3)cc(-c3c(C)noc3C)cc2[nH]1 [Example Compound 79, 3,5-dimethyl-4-(2-methyl-4-(pyridin-3-yl)-1H-benzo[d]imidazol-6-yl)isoxazole]	0.3 to 3 µM	0.3 to 3 µM	≤ 0.3 µM	≤ 0.3 µM
Cc1nc2c(-c3ccc4scnc4c3)cc(-c3c(C)noc3C)cc2[nH]1 [Example Compound 124, 4-(4-(benzo[d]thiazol-5-yl)-2-methyl-1H-benzo[d]imidazol-6-yl)-3,5-dimethyl isoxazole]	0.3 to 3 µM	0.3 to 3 µM	0.3 to 3 µM	≤ 0.3 µM
Cc1nc2c(Nc3cccnc3C)cc(-c3c(C)noc3C)cc2[nH]1 [Example Compound 143, 6-(3,5-dimethylisoxazol-4-yl)-2-methyl-N-(2-methylpyridin-3-yl)-1H-benzo[d]imidazol-4-amine]	0.3 to 3 µM	0.3 to 3 µM	0.3 to 3 µM	≤ 0.3 µM
Cc1noc(C)c1-c1cc(-c2cccc3c2cnn3C)c2nc[nH]c2c1 [Example Compound 23, 3,5-dimethyl-4-(4-(1-methyl-1H-indazol-4-yl)-1H-benzo[d]imidazol-6-yl)isoxazole]	≤ 0.3 µM	0.3 to 3 µM	0.3 to 3 µM	≤ 0.3 µM
